Measurements published in patent US9428791B2, “Probes of RNA structure and methods for using the same” (The Board of Trustees of the Leland Stanford Junior …, priority 2012, dated 2016).
Like-named read-outs stand apart in the source and are kept apart here.

Key:
ATP [1] = test system: ATP
Experimental: Briefly, 10,000 cpm/uL of radiolabeled ATP is incubated with increasing amounts of NAI or FAI (10% final volume) in 100 mM HEPES buffer, pH 8.0, containing 6 mM MgCl2, 100 mM NaCl. Reactions are stopped by addition of an equal volume of Gel Loading Buffer 11 (Ambion, Inc.) and placed on ice. […] Single adduct reaction rates and percentages are calculated by integrating bands (Image Quant, IM Support) and fit to a single exponential.

[2] = Hydrolysis of NAI and FAI in aqueous buffer (absorbance decay); type: physicochemical; conditions: 100 mM HEPES, 100 mM NaCl, 10 mM MgSO4, pH 8.0; fit f=y0+a*exp(−b*x); in 1/min
Experimental: Hydrolysis of NAI and FAI. Hydrolysis of NAI and FAI is monitored by adding 1.5 μL of a 100 mM solution of either NAI or FAI in spectroscopic grade DMF to 598.5 μL of buffer (100 mM HEPES, 100 mM NaCl, 10 mM MgSO4, pH 8.0) and monitoring the decrease in absorbance at 265 nm (NAI) or 275 nm (FAI). Three parameter pseudo-first order exponential decay kinetics are fit using OriginPro 8.0 software using the equation: f=y0+a*exp(−b*x)

ATP [3] = test: ATP gel shift acylation
Description: ATP gel shift. […] Chem. Soc. 127, 4223-4231, (2005).

human 5S rRNA = test: Acylation of 5S rRNA in vitro (SHAPE)
Experimental: Acylation of RNA, in vitro. In a typical in vitro modification protocol, 6 μg total RNA is heated in metal-free water for two minutes at 95° C. The RNA is then flash-cooled on ice. The RNA 3× SHAPE buffer (333 mM HEPES, pH 8.0, 20 mM MgCl2, 333 mM NaCl) is added and the RNA allowed to equilibrate at 37° C. for ten minutes. To this mixture, 1 μL of 10× electrophile stock in DMSO (+) or DMSO (−) is added. The reaction is permitted to continue until the desired time. Reactions are quenched with 60 μL of DMS stop solution (0.5 M β-mercaptoethanol, 0.75 M Na.acetate, pH 5.5). Reactions are extracted once with acid phenol:chloroform (pH 4.5±0.2) and twice with chloroform. RNA is precipitated with 40 μL of 3M sodium acetate buffer (pH 5.2) and 1 μL of glycogen (20 ug/uL).
(§1) Extensions are performed for ten minutes.

5S rRNA [4] = type: cell-based, mouse
Experimental: (§2) Cells are then spun down and decanted. […] Extensions are performed for ten minutes.

[5] = test system: U1 snRNA, U2 snRNA, SNORD3A; test: Acylation of nuclear RNAs in HeLa S3 cells; type: cell-based, Homo sapiens; conditions: HeLa S3, 200 mM final, thirty minutes
Experimental: Cells are then spun down and decanted. […] NO: 12). […] NO:7) (SEQ ID NO:13). […] NO:14). […] Extensions are performed for ten minutes.

5S rRNA [6] = type: cell-based; conditions: cultured human cancer cells
Experimental: as §2

5S rRNA [7] = type: cell-based, Drosophila melanogaster; conditions: Drosophila S2 cells
Experimental: as §2

5S rRNA [8] = test: Acylation of RNA in yeast cells; type: cell-based, Saccharomyces cerevisiae
Experimental: Acylation of RNA in yeast cells. […] Yeast cells are grown to an OD600 of 1.0 at 30° C. in YPD medium. Cells are spun down at 4000×g and decanted. […] Cells are then spun down, decanted, and flash frozen in liquid nitrogen. Frozen pellets are resuspended in 500 uL of 50 mM NaOAc pH5.0, 10 mM EDTA pH 8.0 and 100 uL of 10% SDS. […] Cells are incubated at 65° C. for 1 minute. The freeze thaw cycle is repeated three times.
as §1

5S rRNA [9] = test: Acylation of RNA in E. coli cells; type: cell-based, Escherichia coli
Experimental: Acylation of RNA in E. coli cells. […] E. coli cells are grown to an OD600 of 0.25 at 37° C. in […]. Cells are spun down at 4000×g and decanted. […] Cells are resuspended in a final volume of a fresh solution of 800 μl 0.5 mg/ml lysozyme, TE pH 8.0. 80 μl of 10% SDS is added to the mixture and the slurry is placed at 64° C. for 1-2 min. After incubation add 88 μl 1 M NaOAc, pH5.2 is added. The samples are added to an equal volume (1 ml) of water-saturated phenol (pH <7.0) and incubated at 64° C. for 6 min. The resultant slurry is spun at max speed (14,000 rpm) for 10 min at 4° C. […] Reverse transcription primer used for E. coil 5S rRNA: 5′-[…] (SEQ ID NO: 10).
as §1

Solubility = type: physicochemical
HOTAIR = test: Secondary structure probing of in vitro transcribed HOTAIR RNA; conditions: 5′ end of HOTAIR
Experimental: ABI-1 as a probe of RNA secondary structure. To evaluate the compound's ability to modify RNA at conformationally flexible positions ABI-1 was tested in comparison to NMIA. […] After incubation, the RNA was extracted and precipitated with ethanol.
ABI-1 Reversible Modification and Cell-Permeability. […] FIG. 15A.

ATP [10] = conditions: see Weeks et al., J. Am. Chem. Soc. 127, 4223-4231, 2005; cited from earlier work

Compound	Result (qualitative: reactivity toward ATP, hydrolysis, solubility) (ATP [1])	b (pseudo-first order exponential decay constant of hydrolysis) [2]	Retained reactivity with ATP in aqueous buffer (ATP [3])	Sites of modification mapped to predicted secondary structure (human 5S rRNA)	Time at which modification signal begins to plateau (5S rRNA [4]; 100 mM NAI, murine ESCs) [min]	Time to 5S rRNA modification with suitable signal-to-noise ratio (5S rRNA [4]; 100 mM NAI, murine ESCs)	5S rRNA modification in cells (reverse transcription blocks) (5S rRNA [4]; live mouse ESC, aqueous buffer)	Extent of modification in cells, comparison of probes (5S rRNA [4]; same concentration)	Modification of nuclear, lower abundant RNAs [5]	5S rRNA modification in cells (5S rRNA [6])	5S rRNA modification in cells (5S rRNA [7])	5S rRNA modification in cells (5S rRNA [8])	5S rRNA modification in cells (5S rRNA [9])	Cell attachment, morphology and trypan blue staining (V6.5 mESCs)	maximum solubility (Solubility) [mM]	Mapping of RNA secondary structure (HOTAIR)	Retained reactivity in aqueous buffer (ATP [10])
N#CC(=O)OCc1ccccc1	Too Reactive, High Hydrolysis																
Cc1ncccc1C(=O)n1ccnc1 [NAI, 2-methylnicotinic acid imidizolide]		.020476	retain reactivity with ATP at 120 minutes	map to residues that are predicted to be flexible	≤ 15	in as little as one minute	caused blocks in subsequent reverse transcription	greater extent of modification than FAI	modifies nuclear, lower abundant RNAs	modifies 5S rRNA	modifies 5S rRNA	modifies 5S rRNA	modifies 5S rRNA	remained attached to tissue culture vessel, appeared morphologically normal and unstained by trypan blue			
Cn1c(=O)oc(=O)c2ccccc21 [NMIA, N-methylisotoic anhydride]				map to residues that are predicted to be flexible											13	successfully mapped the predicted secondary structure of the 5′ end of HOTAIR	mostly quenched after thirty minutes
